Our source for the Activity, inhibition and IC50 values is ChEMBL document CHEMBL5321222, “N(14)-substituted evodiamine derivatives as dual topoisomerase 1/tubulin-Inhibiting anti-gastrointestinal tumor agents” (Eur J Med Chem, 2023).

One may read the inhibition as the percentage by which the read-out fell short of the control. By IC50 is commonly meant the point on the concentration scale where inhibition reaches its midpoint.

Activity calls are given as the source filed them. The rule behind the calls is not given here.

For test [1], the system named is MGC-803. The test can be described thus: Induction of cell cycle arrest in human MGC-803 cells assessed as accumulation of cells at G2/M phase at 0.05 uM incubated for 24 hrs by propidium iodide staining based flow cytometry analysis. In kind it is functional. A general note: A flow cytometer gives signals particle by particle.
In test [2] the test system is RKO. The test can be described thus: Induction of apoptosis in human RKO cells assessed as early apoptotic cells at 0.1 uM incubated for 24 hrs by propidium iodide and Annexin V/FITC staining based flow cytometry assay (reference value: 0.16%). The format is functional.
In test [3] the test system is MGC-803. The test can be described thus: Inhibition of colony formation in human MGC-803 cells at 90 nM incubated for 7 days by crystal violet staining based assay. The format is functional, cell-based. As to conditions: time 7.0 day.
Another test has as its system SGC-7901. Briefly: Antiproliferative activity against human SGC-7901 cells assessed as reduction in cell viability incubated for 72 hrs by MTT assay. In kind it is functional, cell-based. As to conditions: SGC-7901, 72 h. In general terms: Tetrazolium dyes change colour on reduction, which living cells bring about.
In test [4] the test system is RKO. Briefly: Induction of apoptosis in human RKO cells assessed as early apoptotic cells at 0.2 uM incubated for 24 hrs by propidium iodide and Annexin V/FITC staining based flow cytometry assay (reference value: 0.16%). In kind it is functional.
The target of test [5] is T1, Tubulin (Homo sapiens) (UniProt P68371+Q9H4B7+P0DPH7+P68366+Q13509+Q71U36+P04350+Q3ZCM7+P07437+P68363+Q9BQE3+Q6PEY2+Q13885+Q9BVA1+Q9BUF5). Briefly: Induction of microtubule disruption in human MGC-803 cells assessed as atrophied nucleus at 50 to 200 nM incubated for 24 hrs by laser confocal microscopic analysis. In kind it is cell-based. As to conditions: dose 50-200 nM.

Test [6] deals with MGC-803. The test can be described thus: Induction of morphological changes in human MGC-803 cells assessed as cell shrinkage at 0.05 to 0.2 uM incubated for 24 hrs by Giemsa staining based micrscopic analysis. As to conditions: dose 0.05-0.2 µM. In kind it is functional.
In test [7] the test system is MGC-803. Briefly: Antiproliferative activity against human MGC-803 cells assessed as reduction in cell viability incubated for 24 hrs by BrdU staining based fluorescence microscopic analysis. In kind it is functional. As to conditions: dose 10-90 nM. In general terms: Incorporation of labelled thymidine or its analogues reports DNA synthesis.
For test [8], the system named is RKO. The test can be described thus: Antiproliferative activity against human RKO cells assessed as reduction in cell viability incubated for 24 hrs by BrdU staining based fluorescence microscopic analysis. In kind it is functional. As to conditions: dose 10-90 nM.
In test [9] the target is T1, Tubulin (Homo sapiens). Briefly: Induction of microtubule disruption in human RKO cells assessed as atrophied nucleus at 50 to 200 nM incubated for 24 hrs by laser confocal microscopic analysis. As to conditions: dose 50-200 nM. In kind it is cell-based.
Test [10] deals with MGC-803. Briefly: Inhibition of cell […] in human MGC-803 cells at 5 nM incubated for 24 hrs by scratch wound healing assay. The format is functional, cell-based.
Test [11] concerns the target T2, DNA topoisomerase 1 (Homo sapiens) (UniProt P11387).
T2 sequence (whole entry): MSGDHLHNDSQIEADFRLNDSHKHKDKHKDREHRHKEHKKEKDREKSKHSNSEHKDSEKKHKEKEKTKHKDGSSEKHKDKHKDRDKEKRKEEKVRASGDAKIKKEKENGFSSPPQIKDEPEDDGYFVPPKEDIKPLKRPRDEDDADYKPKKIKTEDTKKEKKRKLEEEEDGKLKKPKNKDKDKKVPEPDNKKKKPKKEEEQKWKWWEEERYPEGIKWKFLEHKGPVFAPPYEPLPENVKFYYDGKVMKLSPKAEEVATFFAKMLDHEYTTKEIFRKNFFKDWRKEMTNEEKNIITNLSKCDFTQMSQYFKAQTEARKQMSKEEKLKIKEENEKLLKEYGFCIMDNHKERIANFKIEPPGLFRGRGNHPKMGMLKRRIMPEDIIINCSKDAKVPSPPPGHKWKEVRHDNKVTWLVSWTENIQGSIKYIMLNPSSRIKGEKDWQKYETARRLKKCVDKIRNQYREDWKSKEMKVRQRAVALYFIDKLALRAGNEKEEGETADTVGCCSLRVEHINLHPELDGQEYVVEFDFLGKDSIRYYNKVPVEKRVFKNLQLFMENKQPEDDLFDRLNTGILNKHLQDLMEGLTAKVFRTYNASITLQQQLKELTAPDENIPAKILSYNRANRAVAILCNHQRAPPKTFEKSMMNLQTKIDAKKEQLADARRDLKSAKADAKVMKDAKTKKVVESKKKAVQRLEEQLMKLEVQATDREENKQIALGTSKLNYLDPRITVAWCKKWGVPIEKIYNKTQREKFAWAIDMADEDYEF
Briefly: Inhibition of topoisomerase 1 (unknown origin) at 50 uM using PBR322 DNA as substrate incubated for 30 mins by agarose gel electrophoresis relative to control.

Test [12] deals with RKO. Briefly: Induction of cell cycle arrest in human RKO cells assessed as accumulation of cells at G2/M phase at 0.05 to 0.2 uM incubated for 24 hrs by propidium iodide staining based flow cytometry analysis. In kind it is functional. As to conditions: dose 0.05-0.2 µM.
The subject of test [13] is RKO. The test can be described thus: Inhibition of colony formation in human RKO cells at 90 nM incubated for 7 days by crystal violet staining based assay. The format is functional, cell-based. As to conditions: time 7.0 day.
The test system of test [14] is MGC-803. Briefly: Inhibition of cell migration in human MGC-803 cells assessed as reduction in tumor wound healing incubated for 24 hrs by microscopic analysis. As to conditions: dose 10-90 nM. The format is functional, cell-based.
Test [15] concerns RKO. The test can be described thus: Induction of apoptosis in human RKO cells assessed as late apoptotic cells at 0.05 uM incubated for 24 hrs by propidium iodide and Annexin V/FITC staining based flow cytometry assay (reference value: 0.50%). The format is functional.

For the compound `CCCN1c2ccccc2C(=O)N2CCc3c([nH]c4ccccc34)C21` (stereo unspecified), the Activity with MGC-803 [1] is 40.55%; in the test on RKO [2], 14.52%; with RKO [4], 14.35%; in the test with MGC-803 [7], “Dose-Dependent Effect”; in the test on RKO [8], “Dose-Dependent Effect”; in the test with RKO [15], 21.45%. The inhibition result with MGC-803 [3], in the test on MGC-803 [10] and in the test with RKO [13] was “Active” throughout. Also, in the test on SGC-7901, the IC50 was determined as 0.09 µM. The outcome at Tubulin (Homo sapiens) [5], in the test on MGC-803 [6], at Tubulin (Homo sapiens) [9] and in the test with RKO [12] was Active. The inhibition in test [11] is 58.3%; in the test on MGC-803 [14], “Dose-Dependent Effect”.
